Measured values: patent US20140350117A1, “Topical Scar Treatment Composition and Method of Using Same” (PROFESSIONAL COMPOUNDING CENTERS OF AMERICA, priority 2013, published 2014)
Structures can show the parent of a compound that is named as a salt.

Columns and labels:
TGF-β = experiment: luciferase bioassay utilizing mink lung epithelial cells for total TGF-β in keloid fibroblasts culture; format: cell-based; conditions: 48-hour exposure
Excerpt: TGF-β is correlated with luciferase activity and reported in relative light units.

fibroblast cells = conditions: cited from earlier work
collagen = conditions: cited from earlier work
[1] = test system: keloid and hypertrophic scar cells; conditions: stated to correspond to about 0.01% tamoxifen citrate; cited from earlier work

CC/C(=C(\c1ccccc1)c1ccc(OCCN(C)C)cc1)c1ccccc1 [tamoxifen citrate]
total TGF-β levels (TGF-β): dose-dependent decrease | percent reduction of TGF-β (TGF-β; about 8 μM): about 75% | TGF-β level after treatment (TGF-β; about 8 μM, reduced from about 200 pg/ml): about 50 pg/ml | proliferation of normal dermal and keloid fibroblasts (fibroblast cells): decrease proliferation | synthesis of collagen by keloid fibroblasts (collagen): decreasing the synthesis of collagen | concentrations having a deadly effect on keloid and hypertrophic scar cells [1]: greater than 20 μM
